Experimental data reported in PubChem BioAssay AID330 (DTP/NCI, 2004).
Several values for one entry are separate records, joined by “and”; a condition that tells them apart may be missing. Identical values can stand only once. Inconclusive results and toxic doses are left out.

System: P388 leukemia ip, CD2F1 mice, survival T/C
Experiment: NCI In Vivo Anticancer Drug Screen. Data for tumor model P388 Leukemia (intraperitoneal) in CD2F1 (CDF1) mice
Details: endpoint: median survival time, higher = longer survival
Outline: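 Mice carrying the transplanted tumor received test compound or vehicle. Survival was recorded in each group, and the value is the treated-group measurement divided by that of the vehicle-treated control group.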

[1] = dose: 12.5 mg/kg/injection, schedule: Q01DX009 (ip), vehicle: saline
[2] = dose: 25.0 mg/kg/injection, schedule: Q01DX009 (ip), vehicle: saline
[3] = dose: 50.0 mg/kg/injection, schedule: Q01DX009 (ip), vehicle: saline
[4] = dose: 100.0 mg/kg/injection, schedule: Q01DX009 (ip), vehicle: saline
[5] = dose: 200.0 mg/kg/injection, schedule: Q01DX009 (ip), vehicle: saline
[6] = dose: 25.0 mg/kg/injection, schedule: Q01DX009 (ip), vehicle: saline with Tween-80
[7] = dose: 50.0 mg/kg/injection, schedule: Q01DX005 (ip), vehicle: Klucel (hydroxypropylcellulose) (HPC)
[8] = dose: 50.0 mg/kg/injection, schedule: Q01DX009 (ip), vehicle: Klucel (hydroxypropylcellulose) (HPC)
[9] = dose: 50.0 mg/kg/injection, schedule: Q01DX009 (ip), vehicle: saline with Tween-80
[10] = dose: 100.0 mg/kg/injection, schedule: Q01DX005 (ip), vehicle: Klucel (hydroxypropylcellulose) (HPC)
[11] = dose: 100.0 mg/kg/injection, schedule: Q01DX009 (ip), vehicle: Klucel (hydroxypropylcellulose) (HPC)
[12] = dose: 100.0 mg/kg/injection, schedule: Q01DX009 (ip), vehicle: saline with Tween-80
[13] = dose: 200.0 mg/kg/injection, schedule: Q01DX009 (ip), vehicle: saline with Tween-80
[14] = dose: 100.0 mg/kg/injection, schedule: Q01DX001 (ip), vehicle: Klucel (hydroxypropylcellulose) (HPC)
[15] = dose: 200.0 mg/kg/injection, schedule: Q01DX001 (ip), vehicle: Klucel (hydroxypropylcellulose) (HPC)
[16] = dose: 400.0 mg/kg/injection, schedule: Q01DX001 (ip), vehicle: Klucel (hydroxypropylcellulose) (HPC)

CCC[CH2][Sn]([CH2]CCC)[O][Sn]([Cl])([CH2]CCC)[CH2]CCC
T/C (dose: 0.79 mg/kg/injection, schedule: Q01DX009 (ip), vehicle: saline): 100 % of control
T/C (dose: 1.56 mg/kg/injection, schedule: Q01DX009 (ip), vehicle: saline with Tween-80): 100 % of control
T/C (dose: 1.56 mg/kg/injection, schedule: Q01DX009 (ip), vehicle: saline): 100 % of control
T/C (dose: 3.12 mg/kg/injection, schedule: Q01DX009 (ip), vehicle: saline with Tween-80): 101 % of control and 113 % of control
T/C (dose: 3.12 mg/kg/injection, schedule: Q01DX009 (ip), vehicle: saline): 97 % of control
T/C (dose: 6.25 mg/kg/injection, schedule: Q01DX009 (ip), vehicle: saline with Tween-80): 100 % of control
T/C (dose: 6.25 mg/kg/injection, schedule: Q01DX009 (ip), vehicle: saline): 88 % of control

O=C(CCN1CCOCC1)c1ccccc1
T/C [1]: 100 % of control
T/C [2]: 101 % of control
T/C [3]: 100 % of control
T/C [4]: 104 % of control
T/C [5]: 103 % of control

C[N+](C)(C)CCCCCCN
T/C [3]: 102 % of control
T/C [4]: 97 % of control

COc1ccc(NC(CCN2CCN(CCC(=NC(C)(C)C)Nc3ccc(OC)cc3)CC2)=NC(C)(C)C)cc1
T/C [6]: 97 % of control
T/C [2]: 110 % of control
T/C [7]: 98 % of control
T/C [8]: 110 % of control
T/C [9]: 97 % of control
T/C [3]: 109 % of control
T/C [10]: 103 % of control
T/C [11]: 110 % of control
T/C [12]: 107 % of control
T/C [4]: 97 % of control
T/C [13]: 116 % of control

O=C1/C(=C/c2cccnc2)SC(=S)N1Cc1ccco1
T/C [9]: 97 % of control
T/C [12]: 94 % of control
T/C [13]: 90 % of control

C1CC[N-]CC1.C1CC[N-]CC1.C1CC[N-]CC1.[Cl][Rh]([Cl])[Cl]
T/C (dose: 1.0 mg/kg/injection, schedule: Q03HX024 (ip), vehicle: saline): 100 % of control and 96 % of control
T/C (dose: 2.0 mg/kg/injection, schedule: Q03HX016 (ip), vehicle: saline): 97 % of control
T/C (dose: 2.0 mg/kg/injection, schedule: Q03HX024 (ip), vehicle: saline): 96 % of control and 98 % of control
T/C (dose: 4.0 mg/kg/injection, schedule: Q01DX009 (ip), vehicle: saline): 98 % of control
T/C (dose: 4.0 mg/kg/injection, schedule: Q03HX016 (ip), vehicle: saline): 96 % of control
T/C (dose: 4.0 mg/kg/injection, schedule: Q03HX024 (ip), vehicle: saline): 96 % of control
T/C (dose: 8.0 mg/kg/injection, schedule: Q03HX016 (ip), vehicle: saline): 110 % of control and 96 % of control
T/C (dose: 8.0 mg/kg/injection, schedule: Q03HX024 (ip), vehicle: saline): 97 % of control
T/C (dose: 8.0 mg/kg/injection, schedule: Q04DX003 (ip), vehicle: saline): 100 % of control
T/C (dose: 16.0 mg/kg/injection, schedule: Q01DX001 (ip), vehicle: saline): 110 % of control
T/C (dose: 16.0 mg/kg/injection, schedule: Q03HX008 (ip), vehicle: saline): 119 % of control
T/C (dose: 16.0 mg/kg/injection, schedule: Q03HX024 (ip), vehicle: saline): 97 % of control
T/C [6]: 154 % of control
T/C (dose: 32.0 mg/kg/injection, schedule: Q01DX009 (ip), vehicle: saline): 118 % of control
T/C (dose: 32.0 mg/kg/injection, schedule: Q03HX008 (ip), vehicle: saline): 110 % of control
T/C (dose: 32.0 mg/kg/injection, schedule: Q03HX016 (ip), vehicle: saline): 96 % of control
T/C (dose: 32.0 mg/kg/injection, schedule: Q03HX024 (ip), vehicle: saline): 96 % of control and 97 % of control
T/C (dose: 64.0 mg/kg/injection, schedule: Q01DX001 (ip), vehicle: saline): 110 % of control
T/C (dose: 64.0 mg/kg/injection, schedule: Q01DX009 (ip), vehicle: saline): 118 % of control
T/C (dose: 64.0 mg/kg/injection, schedule: Q08DX002 (ip), vehicle: saline): 110 % of control

O=C1NC(O)c2cc(Cl)cc(Cl)c2O1 (configuration not stated)
T/C [7]: 102 % of control
T/C [10]: 102 % of control
T/C (dose: 200.0 mg/kg/injection, schedule: Q01DX005 (ip), vehicle: Klucel (hydroxypropylcellulose) (HPC)): 115 % of control

NC(CSCCCCl)C(=O)O (configuration not stated)
T/C [3]: 95 % of control
T/C [4]: 95 % of control
T/C [5]: 97 % of control

CO/C=N/c1cn2c(n1)CN=C2
T/C (dose: 100.0 mg/kg/injection, schedule: Q01DX001 (ip), vehicle: saline): 102 % of control
T/C (dose: 200.0 mg/kg/injection, schedule: Q01DX001 (ip), vehicle: saline): 95 % of control
T/C (dose: 400.0 mg/kg/injection, schedule: Q01DX001 (ip), vehicle: saline): 96 % of control

CC(CNC(=O)CCBr)NC(=O)CCBr (configuration not stated)
T/C [1]: 105 % of control
T/C [2]: 116 % of control
T/C (dose: 400.0 mg/kg/injection, schedule: Q01DX009 (ip), vehicle: suspension in saline): 116 % of control

CC1(C)CC(OS(=O)(=O)c2ccccc2)CC(C)(C)N1O
T/C [14]: 97 % of control
T/C [15]: 97 % of control
T/C [16]: 97 % of control

O=C1NC(=O)C2(OC3c4ccccc4C=CN3C3=C2C(=O)CCC3)C(=O)N1 (configuration not stated)
T/C (dose: 50.0 mg/kg/injection, schedule: Q01DX005 (ip), vehicle: saline with Tween-80): 94 % of control
T/C (dose: 100.0 mg/kg/injection, schedule: Q01DX005 (ip), vehicle: saline with Tween-80): 94 % of control
T/C (dose: 200.0 mg/kg/injection, schedule: Q01DX005 (ip), vehicle: saline with Tween-80): 92 % of control

CCCC(=O)N[C@H]1CCc2cc(OC)c(OC)c(OC)c2-c2ccc(SC)c(=O)cc21
T/C (dose: 0.38 mg/kg/injection, schedule: Q01DX009 (ip), vehicle: distilled water + Tween-80): 156 % of control
T/C (dose: 0.75 mg/kg/injection, schedule: Q01DX009 (ip), vehicle: distilled water + Tween-80): 160 % of control
T/C (dose: 0.75 mg/kg/injection, schedule: Q01DX009 (ip), vehicle: water): 182 % of control
T/C (dose: 1.5 mg/kg/injection, schedule: Q01DX009 (ip), vehicle: water): 231 % of control

C=C(C)CC1(C)C(=O)CCC1O (configuration not stated)
T/C (dose: 60.0 mg/kg/injection, schedule: Q01DX005 (ip), vehicle: saline with Tween-80): 104 % of control
T/C (dose: 120.0 mg/kg/injection, schedule: Q01DX005 (ip), vehicle: saline with Tween-80): 102 % of control
T/C (dose: 240.0 mg/kg/injection, schedule: Q01DX005 (ip), vehicle: saline with Tween-80): 106 % of control

O=C(Nc1ccccc1)c1ccccc1C(O)(c1ccccc1)c1ccc(Cl)cc1 (configuration not stated)
T/C [12]: 95 % of control
T/C [13]: 90 % of control
T/C (dose: 400.0 mg/kg/injection, schedule: Q01DX009 (ip), vehicle: saline with Tween-80): 90 % of control

O=C(O)CCC(CCC(=O)O)(C(=O)O)C(=O)O
T/C (dose: 60.0 mg/kg/injection, schedule: Q01DX005 (ip), vehicle: saline): 96 % of control
T/C (dose: 120.0 mg/kg/injection, schedule: Q01DX005 (ip), vehicle: saline): 99 % of control

CN=C(N)NN=C(c1ccccc1)c1ccccc1
T/C (dose: 25.0 mg/kg/injection, schedule: Q04DX002 (ip), vehicle: saline with Tween-80): 104 % of control
T/C (dose: 50.0 mg/kg/injection, schedule: Q04DX002 (ip), vehicle: saline with Tween-80): 109 % of control
T/C (dose: 100.0 mg/kg/injection, schedule: Q04DX002 (ip), vehicle: saline with Tween-80): 110 % of control

CC(=O)/C(C)=C/O
T/C (dose: 50.0 mg/kg/injection, schedule: Q01DX005 (ip), vehicle: saline): 98 % of control
T/C (dose: 100.0 mg/kg/injection, schedule: Q01DX005 (ip), vehicle: saline): 104 % of control
T/C (dose: 200.0 mg/kg/injection, schedule: Q01DX005 (ip), vehicle: saline): 104 % of control

NC(=S)c1ccc(/C=N/c2nccs2)cc1
T/C [14]: 105 % of control
T/C [15]: 104 % of control
T/C [16]: 105 % of control

O=c1[nH]c(=O)c2cc([N+](=O)[O-])cc([N+](=O)[O-])c2[nH]1
T/C (dose: 50.0 mg/kg/injection, schedule: Q04DX003 (ip), vehicle: saline): 118 % of control
T/C (dose: 100.0 mg/kg/injection, schedule: Q04DX003 (ip), vehicle: saline): 89 % of control

N#CC1C(=O)NC(=O)C(C#N)C1c1c2ccccc2cc2ccccc12 (configuration not stated)
T/C [8]: 100 % of control
T/C [11]: 100 % of control
T/C (dose: 200.0 mg/kg/injection, schedule: Q01DX009 (ip), vehicle: Klucel (hydroxypropylcellulose) (HPC)): 100 % of control
